One may read the IC50 as the concentration that gives 50% inhibition.

The source of these data is patent US10508077B2 (FORMA Therapeutics, Inc., priority 2015, dated 2019).

This test deals with T1, Recombinant N-terminal GST tag full-length human HDAC8 (Homo sapiens, UniProt Q9BY41).
T1 construct: Recombinant N-terminal GST tag full-length human HDAC8; purchased SignalChem H90-30G-1000; host or cells: Sf9 insect cells (baculovirus)
T1 sequence (Q9BY41 1-377): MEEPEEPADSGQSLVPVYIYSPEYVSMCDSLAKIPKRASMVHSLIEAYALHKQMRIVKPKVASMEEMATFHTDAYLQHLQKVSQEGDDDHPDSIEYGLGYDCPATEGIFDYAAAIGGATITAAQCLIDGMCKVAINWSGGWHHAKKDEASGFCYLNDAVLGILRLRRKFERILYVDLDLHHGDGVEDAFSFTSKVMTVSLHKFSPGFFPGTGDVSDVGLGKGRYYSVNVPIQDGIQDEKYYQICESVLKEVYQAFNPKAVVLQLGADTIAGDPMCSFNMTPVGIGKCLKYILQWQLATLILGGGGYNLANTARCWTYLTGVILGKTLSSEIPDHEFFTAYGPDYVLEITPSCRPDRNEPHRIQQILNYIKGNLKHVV
Description: HDAC8 probe binding assay, time resolved fluorescence (TRF). Conditions: fluorescein labeled pan-HDAC inhibitor probe, 16 hours incubation, compounds listed under IC50 range headings. The protocol: The HDAC8 probe binding assay was performed using a time resolved fluorescence (TRF) assay format. Recombinant N-terminal GST tag full-length human HDAC8 was expressed and purified from baculovirus in Sf9 insect cells (SignalChem, #H90-30G-1000), Each assay was performed in 1536 black well microplates (Corning, #3936) in a final volume of 4 μL in assay buffer containing 50 mM HEPES (pH 7.5), 50 mM KCl, 50 mM NaCl, 0.5 mM GSH (L-Glutathione reduced, Sigma #G4251), 0.03% BGG (0.22 μM filtered, Sigma, #G7516-25G), and 0.01% Triton X-100 (Sigma, #T9284-10L). 20 nL of 10-point, 3-fold serial dilution in DMSO was pre-dispensed into respective wells of 1536 assay plates for a final test concentration range of 25 μM to 1.3 nM respectively. The final concentration in the assay of HDAC8 and probe (a fluorescein labeled pan-HDAC inhibitor) was 2.5 nM and 1.5 nM respectively. 2 μL of 2× probe and 2× anti-GST Terbium (Cisbio, #61GSTXLB) was added to assay plates followed by 2 μL of 2× HDAC8. Plates were incubated for 16 hours at room temperature before time resolved fluorescence was read on the Envision (Excitation at 340 nm, and Emission at 485 nm and 535 nm, Perkin Elmer).
Data from HDAC8 Assays were reported as percent inhibition (inh) compared with control wells based on the following equation: % inh=1−((FLU−AveLow)/(AveHigh−AveLow)) where FLU=measured time resolved fluorescence. AveLow=average time resolved fluorescence of no enzyme control (n=32). AveHigh=average time resolved fluorescence of DMSO control (n=32). IC50 values were determined by curve fitting of the standard 4 parameter logistic fitting algorithm included in the Activity Base software package: IDBS XE Designer Model205. Data is fitted using the Levenburg Marquardt algorithm.

In the case of `O=C(/C=C/c1ccccc1N1CCN(Cc2ccccc2)CC1=O)NO` [Example I-495, (E)-3-(2-(4-benzyl-2-oxopiperazin-1-yl)phenyl)-N-hydroxyacrylamide], the IC50 was at most 1000 nM.
With `O=C(/C=C/c1ccccc1N1CCN(c2ccc(F)cc2)C1=O)NO` [Example I-501, (E)-3-(2-(3-(4-fluorophenyl)-2-oxoimidazolidin-1-yl)phenyl)-N-hydroxyacrylamide], the IC50 was at most 1000 nM.
Consider `O=C(/C=C/c1ccccc1N1CCN(c2ccc(OC(F)(F)F)cc2)CC1=O)NO` [Example I-503, (E)-N-hydroxy-3-(2-(2-oxo-4-(4-(trifluoromethoxy)phenyl)piperazin-1-yl)phenyl)acrylamide], for which the IC50 was at most 1000 nM.
Take `O=C(/C=C/c1ccccc1N1CCN(c2ccc(F)cc2)CC1=O)NO` [Example I-504, (E)-3-(2-(4-(4-fluorophenyl)-2-oxopiperazin-1-yl)phenyl)-N-hydroxyacrylamide]: the IC50 is at most 1000 nM.
Regarding `COc1cc(F)ccc1Oc1ccccc1C(=O)Nc1ccccc1/C=C/C(=O)NO` [Example I-546, (E)-2-(4-fluoro-2-methoxyphenoxy)-N-(2-(3-(hydroxyamino)-3-oxoprop-1-en-1-yl)phenyl)benzamide], the IC50 is at most 1000 nM.
With `Cn1cc(Oc2ccccc2C(=O)Nc2ccccc2/C=C/C(=O)NO)cn1` [Example I-548, N-{2-[(1E)-2-(hydroxycarbamoyl)eth-1-en-1-yl]phenyl}-2-[(1-methyl-1H-pyrazol-4-yl)oxy]benzamide], the IC50 is at most 1000 nM.
`O=C(/C=C/c1cc(Cl)ccc1NC(=O)c1ccccc1Oc1ccc(F)cc1)NO` [Example I-549, N-{4-chloro-2-[(1E)-2-(hydroxycarbamoyl)eth-1-en-1-yl]phenyl}-2-(4-fluorophenoxy)benzamide]: the IC50 was at most 1000 nM.
In the case of `CC(C)(C)OC(=O)N1CCCC12CN(c1ccccc1/C=C/C(=O)NO)C2` [Example I-550, tert-butyl (E)-2-(2-(3-(hydroxyamino)-3-oxoprop-1-en-1-yl)phenyl)-2,5-diazaspiro[3.4]octane-5-carboxylate], the IC50 is at most 1000 nM.
The value for `COc1ccc(F)cc1Oc1ccccc1C(=O)Nc1ccccc1/C=C/C(=O)NO` [Example I-551, 2-(5-fluoro-2-methoxyphenoxy)-N-{2-[(1E)-2-(hydroxycarbamoyl)eth-1-en-1-yl]phenyl}benzamide] was at most 1000 nM.
`COc1cccc(Oc2ccccc2C(=O)Nc2ccccc2/C=C/C(=O)NO)c1` [Example I-552, N-{2-[(1E)-2-(hydroxycarbamoyl)eth-1-en-1-yl]phenyl}-2-(3-methoxyphenoxy)benzamide]: the IC50 was at most 1000 nM.
To `COc1cnccc1Oc1ccccc1C(=O)Nc1ccccc1/C=C/C(=O)NO` [Example I-553, N-{2-[(1E)-2-(hydroxycarbamoyl)eth-1-en-1-yl]phenyl}-2-[(3-methoxypyridin-4-yl)oxy]benzamide] belongs at most 1000 nM.
The value for `O=C(/C=C/c1ccccc1N1CCCC12CN(C(=O)c1ccc(F)cc1)C2)NO` [Example I-554, (E)-3-(2-(2-(4-fluorobenzoyl)-2,5-diazaspiro[3.4]octan-5-yl)phenyl)-N-hydroxyacrylamide] was 1000 to 100000 nM; that for `O=C(/C=C/c1cc(F)ccc1NC(=O)c1ccccc1Oc1ccc(F)cc1)NO` [Example I-555, N-{4-fluoro-2-[(1E)-2-(hydroxycarbamoyl)eth-1-en-1-yl]phenyl}-2-(4-fluorophenoxy)benzamide] was at most 1000 nM; that for `Cn1cc(Oc2ccccc2C(=O)Nc2ccc(F)cc2/C=C/C(=O)NO)cn1` [Example I-558, N-{4-fluoro-2-[(1E)-2-(hydroxycarbamoyl)eth-1-en-1-yl]phenyl}-2-[(1-methyl-1H-pyrazol-4-yl)oxy]benzamide] was at most 1000 nM.
The value for `COc1ccc(Oc2ccccc2C(=O)Nc2ccccc2/C=C/C(=O)NO)cc1` [Example I-559] was at most 1000 nM.
On to `Cc1ccc(Oc2ccccc2C(=O)Nc2ccc(Cl)cc2/C=C/C(=O)NO)cn1` [Example I-560, N-{4-chloro-2-[(1E)-2-(hydroxycarbamoyl)eth-1-en-1-yl]phenyl}-2-[(6-methylpyridin-3-yl)oxy]benzamide], for which the IC50 is at most 1000 nM.
Regarding `O=C(/C=C/c1ccccc1N1CCCC12CN(C(=O)Cc1ccccc1)C2)NO` [Example I-561, (E)-N-hydroxy-3-(2-(2-(2-phenylacetyl)-2,5-diazaspiro[3.4]octan-5-yl)phenyl)acrylamide], the IC50 is at most 1000 nM.
To `O=C(/C=C/c1ccccc1N1CCCC12CN(C(=O)Cc1ccc(F)cc1)C2)NO` [Example I-562] belongs at most 1000 nM; to `O=C(/C=C/c1c(Cl)cccc1NC(=O)c1ccccc1Oc1ccc(F)cc1)NO` [Example I-563, N-{3-chloro-2-[(1E)-2-(hydroxycarbamoyl)eth-1-en-1-yl]phenyl}-2-(4-fluorophenoxy)benazmide], at most 1000 nM; to `O=C(/C=C/c1ccc(Cl)cc1NC(=O)c1ccccc1Oc1ccc(F)cc1)NO` [Example I-564, N-{5-chloro-2-[(1E)-2-(hydroxycarbamoyl)eth-1-en-1-yl]phenyl}-2-(4-fluorophenoxy)benzamide], at most 1000 nM.
As to `O=C(/C=C/c1ccccc1N1CCCC12CN(C(=O)C1CCCC1)C2)NO` [Example I-565, (E)-3-(2-(2-(cyclopentanecarbonyl)-2,5-diazaspiro[3.4]octan-5-yl)phenyl)-N-hydroxyacrylamide], the IC50 was at most 1000 nM.
On to `O=C(/C=C/c1ccccc1N1CCCC12CN(C(=O)CC(F)(F)F)C2)NO` [Example I-566, (E)-N-hydroxy-3-(2-(2-(3,3,3-trifluoropropanoyl)-2,5-diazaspiro[3.4]octan-5-yl)phenyl)acrylamide], for which the IC50 was at most 1000 nM.
The value for `O=C(/C=C/c1ccccc1N1CCCC12CN(C(=O)C1CCCCC1)C2)NO` [Example I-567, (E)-3-(2-(2-(cyclohexanecarbonyl)-2,5-diazaspiro[3.4]octan-5-yl)phenyl)-N-hydroxyacrylamide] was 1000 to 100000 nM; that for `CC1(C(=O)N2CC3(CCCN3c3ccccc3/C=C/C(=O)NO)C2)CCCCC1` [Example I-568, (E)-N-hydroxy-3-(2-(2-(1-methylcyclohexane-1-carbonyl)-2,5-diazaspiro[3.4]octan-5-yl)phenyl)acrylamide] was at most 1000 nM; that for `CC(C)(C)C(=O)N1CC2(CCCN2c2ccccc2/C=C/C(=O)NO)C1` [Example I-569] was at most 1000 nM.
To `O=C(/C=C/c1cc(Cl)ccc1NC(=O)c1cccnc1Oc1ccccc1)NO` [Example I-570, N-{4-chloro-2-[(1E)-2-(hydroxycarbamoyl)eth-1-en-1-yl]phenyl}-2-phenoxypyridine-3-carboxamide] belongs at most 1000 nM; to `O=C(/C=C/c1cc(Cl)ccc1NC(=O)c1cccnc1Oc1ccc(Cl)cc1)NO` [Example I-572, N-{4-chloro-2-[(1E)-2-(hydroxycarbamoyl)eth-1-en-1-yl]phenyl}-2-(4-chlorophenoxy)pyridine-3-carboxamide], at most 1000 nM; to `COc1ccc(Oc2ccccc2C(=O)Nc2ccc(Cl)cc2/C=C/C(=O)NO)cc1` [Example I-573, N-{4-chloro-2-[(1E)-2-(hydroxycarbamoyl)eth-1-en-1-yl]phenyl}-2-(4-methoxyphenoxy)benzamide], at most 1000 nM.
To `O=C(/C=C/c1ccccc1N1CCC2(CCCN2C(=O)c2ccc(F)cc2)C1)NO` (stereo not shown) [Example I-575, (E)-3-(2-(1-(4-fluorobenzoyl)-1,7-diazaspiro[4.4]nonan-7-yl)phenyl)-N-hydroxyacrylamide] belongs at most 1000 nM; to `O=C(/C=C/c1ccccc1N1CCC2(CCCN2C(=O)CC(F)(F)F)C1)NO` (stereo not shown) [Example I-576, (E)-N-hydroxy-3-(2-(1-(3,3,3-trifluoropropanoyl)-1,7-diazaspiro[4.4]nonan-7-yl)phenyl)acrylamide], at most 1000 nM; to `O=C(/C=C/c1ccccc1N1CCC2(CCCN2C(=O)Cc2ccccc2)C1)NO` (stereo not shown) [Example I-579, (E)-N-hydroxy-3-(2-(1-(2-phenylacetyl)-1,7-diazaspiro[4.4]nonan-7-yl)phenyl)acrylamide], 1000 to 100000 nM.
